Consider two molecules from patent US20120316210A1, “TOPICAL ANTIPARASITIC FORMULATIONS” (priority 2010, published 2012).

Like-named read-outs stand apart in the source and are kept apart here.

Data set [1] in a line: pKa of demiditraz. The settings on record: weak base. The data set is classed as physicochemical. The method, then:
(§1) […] is also a weak base due to the presence of the imidazole ring. […] An acid modifier (or mixtures thereof) was added to the formulation in a molar equivalent relative to the amount of demiditraz to adjust the pH below 7.5 and reduce or eliminate the nucleophilic reaction between fipronil and demiditraz. The acid modifier includes both weak and strong acids. The weak acids include sugar acids (glyceric, gluconic, ascorbic, tartaric, and the like), carboxylic acid derivatives (mono-, di-, and tri-chloro acetic acid, and mono-, di-, and tri-fluoro acetic acid, benzoic, and the like) and mono-, di-, and tri-carboxylic acids. Non-exclusive examples of monocarboxylic acids include formic, acetic, propionic, butyric, oleic, valeric, caproic, enanthic, caprylic, linoleic, chloroacetic, dichloroacetic, oxalic, benzoic, pelargonic, capric, lauric, myristic, palmitic, stearic, and arachidic acid. Non-exclusive examples of di-carboxylic acids include oxalic, malonic, succinic, fumaric, aldaric, tartaric, glutaric, adipic, maleic, malic, pimelic, suberic, azelaic, sebacic, phthalic, isophtalic, and terephthalic acid. Non-exclusive examples of tri-carboxylic acids include citric, isocitric, aconitic, propane-1,2,3-tricarboxylic, and trimesic acid.

The format of data set [2] is physicochemical. The method, then: as §1
The format of data set [3] is physicochemical. The method, then:
as §1
The addition of the weak acid in the formulation lowered the apparent pH of the formulation to about 6.5 to 7.5, however, fipronil degraded initially by about 5-6% followed by slower degradation to about 10-15% during an accelerated (70°) kinetic study. Strong acids (pka≦2) were added to the formulation to both lower apparent pH to about 2.5 to about 3.5 and to protonate demiditraz to prevent it from potentially acting as a nucleophile against fipronil. Non-exclusive examples of strong acids include inorganic acids (e.g., HCl, HBr, HI, HF, nitric acid, phosphoric acid, boric acid, sulfuric acid, and the like). Other strong acids include sulfonic acid and sulfonic acid derivatives thereof. Non-exclusive examples of sulfonic acid derivatives include methane-, ethane-, p-toluenesulfonic (p-TSA), and dodecylbenzenesulfonic acid. The use of a strong acid, e.g., p-TSA, increased fipronil stability, however, degradation was still about 5% after 12 weeks at 50° C.
The initial instability of fipronil was reduced to about ≦1% during an accelerated (70° C.) 1-week stability study for DPGMME with a strong acid and for NMP with a strong or weak acid.
This is another data set of the same source.

In data set [1], `Cc1cccc([C@H](C)c2ncc[nH]2)c1C` [Demiditraz, demiditraz] returned a pKa of 7.2.
Turning to `N#Cc1nn(-c2c(Cl)cc(C(F)(F)F)cc2Cl)c(N)c1[S+]([O-])C(F)(F)F` (centres unmarked) [fipronil], the “pH levels at which fipronil degrades rapidly” value in data set [2] was “above 7.5”. Besides, in data set [3], the Fipronil initial degradation is recorded as 5-6%, the “Fipronil slower degradation following the initial one” value is reported as 10-15% and the “Fipronil stability when formulated with demiditraz” value is reported as “unstable”. Further, in data set [3] (1 week), the Fipronil degradation is listed as 3-6% and the “Initial instability of fipronil” value is listed as at most 1%. Besides, the Fipronil degradation result in data set [3] (12 weeks) was “about 5%”.
